From BigSolDB 2.1

Nc1cccnc1
solubility (mole fraction)
Conditions | 288.15 K | 293.15 K | 298.15 K | 303.15 K | 308.15 K | 313.15 K | 318.15 K | 323.15 K
in acetone | 0.155 | 0.194 | 0.244 | 0.305 | 0.38 | 0.468 | 0.565 | 0.668
in n-butyl acetate | 0.432 | 0.481 | 0.537 | 0.591 | 0.65 | 0.712 | 0.77 | 0.835
